# Data as given in article PMC7156458, “Synthetic biology based construction of biological activity-related library of fungal decalin-containing diterpenoid pyrones” (Nature Communications, 2020).
# Molecular target: Aβ42 (Homo sapiens, UniProt P05067)
# Assay: Th-T (thioflavin-T) assay of Aβ42 aggregation
# Type: biochemical
# Conditions: for Th-T assay plate reading, mean of three wells (Supplementary Fig. 47): source data, Ab alone and No Ab as controls
# Chain of Aβ42 (P05067 672-713): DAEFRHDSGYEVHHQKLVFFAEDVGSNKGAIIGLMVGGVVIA
compound,measurement,setting,value
"C=C1CCC2C(C)(CCC=C(C)C)C(O)CCC2(C)C1Cc1c(O)c(C)c(C)oc1=O (stereo not drawn) [Compound 9, higginsianin B]","Th-T fluorescence, mean of three wells","Aβ42 aggregation time course, reading M117",2.792
same,"Th-T fluorescence, mean of three wells","Aβ42 aggregation time course, reading M118",2.807
same,"Th-T fluorescence, mean of three wells","Aβ42 aggregation time course, reading M119",2.796
same,"Th-T fluorescence, mean of three wells","Aβ42 aggregation time course, reading M120",2.799
same,"Th-T fluorescence, mean of three wells","Aβ42 aggregation time course, reading M121",2.791
same,"Th-T fluorescence, mean of three wells","Aβ42 aggregation time course, reading M122",2.801
same,"Th-T fluorescence, mean of three wells","Aβ42 aggregation time course, reading M123",2.8089
same,"Th-T fluorescence, mean of three wells","Aβ42 aggregation time course, reading M124",2.764
same,"Th-T fluorescence, mean of three wells","Aβ42 aggregation time course, reading M125",2.798
same,"Th-T fluorescence, mean of three wells","Aβ42 aggregation time course, reading M126",2.7918
same,"Th-T fluorescence, mean of three wells","Aβ42 aggregation time course, reading M127",2.782
same,"Th-T fluorescence, mean of three wells","Aβ42 aggregation time course, reading M128",2.756
same,"Th-T fluorescence, mean of three wells","Aβ42 aggregation time course, reading M129",2.788
same,"Th-T fluorescence, mean of three wells","Aβ42 aggregation time course, reading M130",2.772
same,"Th-T fluorescence, mean of three wells","Aβ42 aggregation time course, reading M131",2.794
same,"Th-T fluorescence, mean of three wells","Aβ42 aggregation time course, reading M132",2.756
same,"Th-T fluorescence, mean of three wells","Aβ42 aggregation time course, reading M133",2.787
same,"Th-T fluorescence, mean of three wells","Aβ42 aggregation time course, reading M134",2.786
same,"Th-T fluorescence, mean of three wells","Aβ42 aggregation time course, reading M135",2.766
same,"Th-T fluorescence, mean of three wells","Aβ42 aggregation time course, reading M136",2.788
same,"Th-T fluorescence, mean of three wells","Supplementary Fig. 47, reading M137",2.782
same,"Th-T fluorescence, mean of three wells","Supplementary Fig. 47, reading M138",2.781
same,"Th-T fluorescence, mean of three wells","Supplementary Fig. 47, reading M139",2.778
same,"Th-T fluorescence, mean of three wells","Supplementary Fig. 47, reading M140",2.777
same,"Th-T fluorescence, mean of three wells","Supplementary Fig. 47, reading M141",2.762
same,"Th-T fluorescence, mean of three wells","Supplementary Fig. 47, reading M142",2.77
same,"Th-T fluorescence, mean of three wells","Supplementary Fig. 47, reading M143",2.794
same,"Th-T fluorescence, mean of three wells","Supplementary Fig. 47, reading M144",2.791
same,"Th-T fluorescence, mean of three wells","Supplementary Fig. 47, reading M145",2.767
same,"Th-T assay plate reading, mean of three wells (Supplementary Fig. 47)",measurement M1,0.2408
same,"Th-T assay plate reading, mean of three wells (Supplementary Fig. 47)",measurement M2,0.2372
same,"Th-T assay plate reading, mean of three wells (Supplementary Fig. 47)",measurement M3,0.2484
same,"Th-T assay plate reading, mean of three wells (Supplementary Fig. 47)",measurement M4,0.2764
same,"Th-T assay plate reading, mean of three wells (Supplementary Fig. 47)",measurement M5,0.3211
same,"Th-T assay plate reading, mean of three wells (Supplementary Fig. 47)",measurement M6,0.3818
same,"Th-T assay plate reading, mean of three wells (Supplementary Fig. 47)",measurement M7,0.386
same,"Th-T assay plate reading, mean of three wells (Supplementary Fig. 47)",measurement M8,0.4241
same,"Th-T assay plate reading, mean of three wells (Supplementary Fig. 47)",measurement M9,0.4754
same,"Th-T assay plate reading, mean of three wells (Supplementary Fig. 47)",measurement M10,0.5222
same,"Th-T assay plate reading, mean of three wells (Supplementary Fig. 47)",measurement M11,0.5741
same,"Th-T assay plate reading, mean of three wells (Supplementary Fig. 47)",measurement M12,0.6179
same,"Th-T assay plate reading, mean of three wells (Supplementary Fig. 47)",measurement M13,0.6443
same,"Th-T assay plate reading, mean of three wells (Supplementary Fig. 47)",measurement M14,0.6952
same,"Th-T assay plate reading, mean of three wells (Supplementary Fig. 47)",measurement M15,0.7748
same,"Th-T assay plate reading, mean of three wells (Supplementary Fig. 47)",measurement M16,1.021
same,"Th-T fluorescence, mean of three wells","reading M17, Supplementary Fig. 47 source data",1.394
same,"Th-T fluorescence, mean of three wells","time-course reading M97, Supplementary Fig. 47 source data",2.816
same,"Th-T fluorescence, mean of three wells","time-course reading M98, Supplementary Fig. 47 source data",2.842
same,"Th-T fluorescence, mean of three wells","time-course reading M99, Supplementary Fig. 47 source data",2.834
same,"Th-T fluorescence, mean of three wells","time-course reading M100, Supplementary Fig. 47 source data",2.825
same,"Th-T fluorescence, mean of three wells","time-course reading M101, Supplementary Fig. 47 source data",2.818
same,"Th-T fluorescence, mean of three wells","time-course reading M102, Supplementary Fig. 47 source data",2.832
same,"Th-T fluorescence, mean of three wells","time-course reading M103, Supplementary Fig. 47 source data",2.816
same,"Th-T fluorescence, mean of three wells","time-course reading M104, Supplementary Fig. 47 source data",2.8075
same,"Th-T fluorescence, mean of three wells","time-course reading M105, Supplementary Fig. 47 source data",2.8016
same,"Th-T fluorescence, mean of three wells","time-course reading M106, Supplementary Fig. 47 source data",2.808
same,"Th-T fluorescence, mean of three wells","time-course reading M107, Supplementary Fig. 47 source data",2.794
same,"Th-T fluorescence, mean of three wells","time-course reading M108, Supplementary Fig. 47 source data",2.811
same,"Th-T fluorescence, mean of three wells","time-course reading M109, Supplementary Fig. 47 source data",2.783
same,"Th-T fluorescence, mean of three wells","time-course reading M110, Supplementary Fig. 47 source data",2.799
same,"Th-T fluorescence, mean of three wells","time-course reading M111, Supplementary Fig. 47 source data",2.807
same,"Th-T fluorescence, mean of three wells","time-course reading M112, Supplementary Fig. 47 source data",2.812
same,"Th-T fluorescence, mean of three wells","time-course reading M113, Supplementary Fig. 47 source data",2.81
same,"Th-T fluorescence, mean of three wells","time-course reading M114, Supplementary Fig. 47 source data",2.8
same,"Th-T fluorescence, mean of three wells","time-course reading M115, Supplementary Fig. 47 source data",2.812
same,"Th-T fluorescence, mean of three wells","time-course reading M116, Supplementary Fig. 47 source data",2.796
